Results: PubChem BioAssay AID493062 (The Scripps Research Institute Molecular Screening Center, 2011)

Assays:
2B4/BCL-2 = assay: caspase activation in 2B4/MCL-1 versus 2B4/BCL-2 cells, late-stage follow-up, selectivity assay for MCL1-BIM inhibitor project, cell-based, fluorescence, assay provider data (AID 493062); settings: 2B4/MCL-1 caspase activation fluorescence
2B4/MCL-1 = assay: as above; settings: 2B4/MCL-1 caspase activation fluorescence

| SMILES | EC50 (2B4/BCL-2) [µM] | EC50 (2B4/MCL-1) [µM] |
| --- | --- | --- |
| COc1ccc(NC(=O)c2cc(-c3ccco3)nc3ccccc23)cc1 | > 25 | > 25 |
| Cc1cccc(NC(=O)c2cc(-c3ccco3)nc3ccccc23)n1 | > 25 | > 25 |
| CCOC(=O)c1cc(-c2ccco2)nc2c1c(C)nn2-c1ccccc1 | > 25 | > 25 |
| O=C(NC1CCC(O)CC1)c1cc(-c2ccco2)nc2ccccc12 (configuration not stated) | > 25 | > 25 |
| Cc1ccc(-c2cc(C(=O)N(C)CC(=O)Nc3ccccc3Br)c3ccccc3n2)o1 | > 25 | > 25 |
| CC1CCCN(C(=O)c2cc(-c3ccco3)nc3ccccc23)C1 (configuration not stated) | > 25 | > 25 |
| O=C(NC(=S)Nc1cccc(S(=O)(=O)NC2=NCCC2)c1)c1cc(-c2ccco2)nc2ccccc12 | > 25 | > 25 |
| COc1ccc(Cc2nnc(NC(=O)C(=O)c3ccco3)s2)cc1OC | > 25 | > 25 |
| COc1cccc(CC(=O)Nc2nnc(Cc3ccc(OC)c(OC)c3)s2)c1 | > 25 | > 25 |
| O=C(Nc1cccc(F)c1)c1cc(-c2ccco2)nc2ccccc12 | > 25 | > 25 |
| Cc1ccc2nc(NC(=O)c3cc(-c4ccco4)nc4ccccc34)sc2c1 | > 25 | > 25 |
| Cc1ccc(NC(=O)c2cc(-c3ccc(C)o3)nc3ccccc23)nc1 | > 25 | > 25 |
| COc1ccc(Cc2nnc(NC(=O)c3cc(-c4ccco4)nc4ccc(Br)cc34)s2)cc1OC | 7.5 | 11 |
| Cc1ccc(-c2cc(C(=O)N3CC(C)CC(C)C3)c3ccccc3n2)o1 (configuration not stated) | > 25 | > 25 |
| CN(CC(=O)Nc1cccc(F)c1)C(=O)c1cc(-c2ccco2)nc2ccccc12 | > 25 | > 25 |
| CCN(CC)CCNC(=O)c1cc(-c2ccco2)nc2ccccc12 | > 25 | > 25 |
| CN(CCOc1ccccc1)C(=O)c1cc(-c2ccco2)nc2ccccc12 | > 25 | > 25 |
| COc1cccc(NC(=O)CN(C)C(=O)c2cc(-c3ccc(C)o3)nc3ccccc23)c1 | > 25 | > 25 |
| COc1ccc(NC(=O)c2cc(-c3ccco3)nc3ccccc23)cc1S(=O)(=O)N1CCOCC1 | > 25 | > 25 |
| COc1ccc(NC(=O)c2cc(-c3ccc(C)o3)nc3ccccc23)cc1OC | > 25 | > 25 |
| Cc1ccc(S(=O)(=O)N(C)C)cc1NC(=O)c1cc(-c2ccco2)nc2ccccc12 | > 25 | > 25 |
| COc1ccc(Cc2nnc(NC(=O)Cc3ccc4c(c3)OCO4)s2)cc1OC | > 25 | > 25 |

| SMILES | EC50 (2B4/BCL-2) [µM] | EC50 (2B4/MCL-1) [µM] |
| --- | --- | --- |
| Cc1ccc(-c2cc(C(=O)Nc3ccccn3)c3ccccc3n2)o1 | > 25 | > 25 |
| CCOc1cc(N2CCOCC2)c(OCC)cc1NC(=O)c1cc(-c2ccco2)nc2ccccc12 | > 25 | > 25 |
| CC(=O)c1cccc(NC(=O)c2cc(-c3ccco3)nc3ccccc23)c1 | > 25 | > 25 |
| Cc1cccc(NC(=O)c2cc(-c3ccc(C)o3)nc3ccccc23)n1 | 25 | 40 |
| O=C(c1cc(-c2ccco2)nc2ccccc12)N1CCN(Cc2ccccc2)CC1 | > 25 | > 25 |
| Cc1ccc(-c2cc(C(=O)NCC(c3ccccc3)N(C)C)c3ccccc3n2)o1 (configuration not stated) | > 25 | > 25 |
| NS(=O)(=O)c1ccc(CCNC(=O)c2cc(-c3ccco3)nc3ccccc23)cc1 | > 25 | > 25 |
| O=C(CCn1nnc2ccccc21)Nc1nnc(Cc2ccc(F)cc2)s1 | > 25 | > 25 |
| O=C(NC1CC1)c1cc(-c2ccco2)nc2ccccc12 | > 25 | > 25 |
| COc1ccc(Cc2nnc(NC(=O)Cc3ccc(-c4ccccc4)cc3)s2)cc1OC | > 25 | > 25 |
| COc1ccc(Cc2nnc(NC(=O)C3(c4ccccc4)CC3)s2)cc1OC | > 25 | > 25 |
| COc1cccc(NC(=O)c2cc(-c3ccco3)nc3ccccc23)c1 | > 25 | > 25 |
| O=C(c1cc(-c2ccco2)nc2ccccc12)N1CCCC(C(F)(F)F)C1 (configuration not stated) | > 25 | > 25 |
| COc1ccc(Cc2nnc(NC(=O)Cc3ccc4ccccc4c3)s2)cc1OC | > 25 | > 25 |
| Cc1csc(NC(=O)c2cc(-c3ccco3)nc3ccccc23)n1 | > 25 | > 25 |
| CCN(CC)C(=O)COc1ccc2c(-c3ccccc3)cc(=O)oc2c1 | > 25 | > 25 |
| COc1ccc(Cc2nnc(NC(=O)Cc3cc(F)cc(F)c3)s2)cc1OC | > 25 | > 25 |
| COc1ccc(NC(=O)CN(C)C(=O)c2cc(-c3ccc(C)o3)nc3ccccc23)cc1 | > 25 | > 25 |
| CN(CCOc1ccc(Cl)cc1)C(=O)c1cc(-c2ccco2)nc2ccccc12 | > 25 | > 25 |
| CCN(CC)C(=O)COc1ccc2c(-c3ccc(OC)cc3)cc(=O)oc2c1C | > 25 | > 25 |
| O=C(Nc1cccc(S(=O)(=O)NC2=NCCCCC2)c1)c1cc(-c2ccco2)nc2ccccc12 | > 25 | > 25 |
| Cc1ccc(-c2cc(C(=O)NCCCn3ccnc3)c3cc(Br)ccc3n2)o1 | > 25 | > 25 |

| SMILES | EC50 (2B4/BCL-2) [µM] | EC50 (2B4/MCL-1) [µM] |
| --- | --- | --- |
| COc1ccc(Cc2nnc(NC(=O)Cc3cccnc3)s2)cc1OC | > 25 | > 25 |
| Cc1ccc(-c2cc(C(=O)Nc3cccc(S(=O)(=O)N(C)C)c3)c3ccccc3n2)o1 | > 25 | > 25 |
| COc1ccc(Cc2nnc(NC(=O)Cc3ccc(C)cc3)s2)cc1OC | > 25 | > 25 |
| COc1ccc(Cc2nnc(NC(=O)Cc3cccs3)s2)cc1OC | > 25 | > 25 |
| COc1ccc(CCNC(=O)c2cc(-c3ccco3)nc3ccccc23)cc1 | > 25 | > 25 |
| CCOC(=O)c1cc(-c2ccco2)nc2c1c(C)nn2-c1cccc(Cl)c1 | > 25 | > 25 |
| Cc1ccnc(NC(=O)c2cc(-c3ccco3)nc3ccc(Br)cc23)c1 | > 25 | 12 |
| O=C(Nc1ccccn1)c1cc(-c2ccco2)nc2ccc(Br)cc12 | 3 | > 25 |
| COc1ccc(Cc2nnc(NC(=O)CCc3cccs3)s2)cc1OC | > 25 | > 25 |
| COc1ccc(CC(=O)Nc2nnc(Cc3ccc(OC)c(OC)c3)s2)cc1 | > 25 | > 25 |
| Cc1ccc(NC(=O)c2cc(-c3ccc(C)o3)nc3ccccc23)cc1 | > 25 | > 25 |
| COc1ccc(Cc2nnc(NC(=O)Cc3ccccc3C)s2)cc1OC | > 25 | > 25 |
| O=C(Cc1cccs1)Nc1nnc(Cc2ccccc2)s1 | > 25 | > 25 |
| Cc1ccc(-c2cc(C(=O)N3CCOCC3)c3ccccc3n2)o1 | > 25 | > 25 |
| COc1ccc(Cc2nnc(NC(=O)Cc3c[nH]c4ccccc34)s2)cc1OC | > 25 | > 25 |
| COc1ccc(NC(=O)c2cc(-c3ccco3)nc3ccccc23)cn1 | > 25 | > 25 |
| Cc1ccc(-c2cc(C(=O)NCCN3CCOCC3)c3ccccc3n2)o1 | > 25 | > 25 |
| Cc1ccc(-c2cc(C(=O)N3CCN(c4ccc(F)cc4)CC3)c3ccccc3n2)o1 | > 25 | > 25 |
| CCCC(=O)Nc1nnc(Cc2ccccc2)s1 | > 25 | > 25 |
| CCC(=O)Nc1nnc(Cc2ccccc2)s1 | > 25 | > 25 |
| O=C(Nc1cccc(S(=O)(=O)NC2=NCCC2)c1)c1cc(-c2ccco2)nc2ccccc12 | > 25 | > 25 |
| CN(C)C(CNC(=O)c1cc(-c2ccco2)nc2ccccc12)c1ccccc1 (configuration not stated) | > 25 | > 25 |

| SMILES | EC50 (2B4/BCL-2) [µM] | EC50 (2B4/MCL-1) [µM] |
| --- | --- | --- |
| CCCCn1c(N)c(N(CCC(C)C)C(=O)c2cc(-c3ccco3)nc3ccccc23)c(=O)[nH]c1=O | > 25 | > 25 |
| COc1ccc(Cc2nnc(NC(=O)Cc3ccc(N(C)C)cc3)s2)cc1OC | > 25 | > 25 |
| O=C(Nc1ccccc1F)c1cc(-c2ccco2)nc2ccccc12 | > 25 | > 25 |
| COc1ccc(Cc2nnc(NC(=O)Cc3sc(=S)[nH]c3C)s2)cc1OC | > 25 | > 25 |
| CCCn1c(N)c(N(CCOC)C(=O)c2cc(-c3ccco3)nc3ccccc23)c(=O)[nH]c1=O | > 25 | > 25 |
| CCN(CC)C(=O)COc1ccc2c(-c3ccc(OC)cc3)cc(=O)oc2c1 | > 25 | > 25 |
| Cc1ccc(NC(=O)c2cc(-c3ccco3)nc3ccccc23)cc1S(=O)(=O)N1CCOCC1 | > 25 | > 25 |
| COc1ccc(NC(=O)c2cc(-c3ccc(C)o3)nc3ccccc23)c(OC)c1 | > 25 | > 25 |
| COc1ccc(Cc2nnc(NC(=O)Cc3csc4ccccc34)s2)cc1OC | > 25 | > 25 |
| CN(CC(=O)Nc1ccc(F)cc1)C(=O)c1cc(-c2ccco2)nc2ccccc12 | > 25 | > 25 |
| CN(C)C(=O)c1ccc(NC(=O)c2cc(-c3ccco3)nc3ccccc23)cc1 | > 25 | > 25 |
| CCCCCCNC(=O)c1cc(-c2ccco2)nc2ccccc12 | > 25 | > 25 |
| COc1ccc(Cc2nnc(NC(=O)Cc3ccncc3)s2)cc1OC | > 25 | > 25 |
| CCCCn1c(N)c(N(CC(C)C)C(=O)c2cc(-c3ccco3)nc3ccccc23)c(=O)[nH]c1=O | > 25 | > 25 |
| COCCN(C(=O)c1cc(-c2ccco2)nc2ccccc12)c1c(N)n(Cc2ccccc2)c(=O)[nH]c1=O | > 25 | > 25 |
| O=C(CCn1nnc2ccccc21)Nc1nnc(Cc2ccccc2)s1 | > 25 | > 25 |
| O=C(Nc1nc2ccccc2s1)c1cc(-c2ccco2)nc2ccccc12 | > 25 | > 25 |
| O=C(Nc1cccnc1)c1cc(-c2ccco2)nc2ccc(Br)cc12 | > 25 | 10 |
| COc1ccc(Cc2nnc(NC(=O)Cc3cccs3)s2)cc1 | > 25 | > 25 |
| Cc1ccc(-c2cc(C(=O)Nc3ccccc3C(N)=O)c3ccccc3n2)o1 | > 25 | > 25 |
